This test concerns the target T1, human full-length MKNK1 (Homo sapiens, UniProt Q9BUB5, T385D).
T1 construct: purchased Carna Biosciences 02-145; host or cells: insect cells (baculovirus expression system)
Nature of the test: MKNK1 kinase high ATP assay (TR-FRET). The class given is biochemical. The conditions noted are these: high ATP (2 mM final), 15 min preincubation with enzyme, GST-MKNK1 (T344D). The protocol: MKNK1-inhibitory activity at high ATP of compounds of the present invention after their preincubation with MKNK1 was quantified employing the TR-FRET-based MKNK1 high ATP assay as described in the following paragraphs.
A recombinant fusion protein of Glutathione-S-Transferase (GST, N-terminally) and human full-length MKNK1 (amino acids 1-424 and T344D of accession number BAA 19885.1), expressed in insect cells using baculovirus expression system and purified via glutathione sepharose affinity chromatography, was purchased from Carna Biosciences (product no 02-145) and used as enzyme. As substrate for the kinase reaction the biotinylated peptide biotin-Ahx-IKKRKLTRRKSLKG (C-terminus in amide form) was used, which can be purchased e.g. from the company Biosyntan (Berlin-Buch, Germany).
For the assay 50 nL of a 100 fold concentrated solution of the test compound in DMSO was pipetted into a black low volume 384 well microtiter plate (Greiner Bio-One, Frickenhausen, Germany), 2 μL of a solution of MKNK1 in aqueous assay buffer [50 mM HEPES pH 7.5, 5 mM MgCl2, 1.0 mM dithiothreitol, 0.005% (v/v) Nonidet-P40 (Sigma)] was added and the mixture was incubated for 15 min at 22° C. to allow pre-binding of the test compounds to the enzyme before the start of the kinase reaction. Then the kinase reaction was started by the addition of 3 μL of a solution of adenosine-tri-phosphate (ATP, 3.3 mM=> final conc. in the 5 μL assay volume is 2 mM) and substrate (0.1 μM=> final conc. in the 5 μL assay volume is 0.06 μM) in assay buffer and the resulting mixture was incubated for a reaction time of 30 min at 22° C. The concentration of MKNK1 was adjusted depending of the activity of the enzyme lot and was chosen appropriate to have the assay in the linear range, typical concentrations were in the range of 0.003 μg/mL. The reaction was stopped by the addition of 5 μL of a solution of TR-FRET detection reagents (5 nM streptavidine-XL665 [Cisbio Bioassays, Codolet, France] and 1 nM anti-ribosomal protein S6 (pSer236)-antibody from Invitrogen [#44921G] and 1 nM LANCE EU-W1024 labeled ProteinG [Perkin-Elmer, product no. AD0071]) in an aqueous EDTA-solution (100 mM EDTA, 0.1% (w/v) bovine serum albumin in 50 mM HEPES pH 7.5).
The resulting mixture was incubated for 1 h at 22° C. to allow the formation of complex between the phosphorylated biotinylated peptide and the detection reagents. Subsequently the amount of phosphorylated substrate was evaluated by measurement of the resonance energy transfer from the Eu-chelate to the streptavidine-XL. Therefore, the fluorescence emissions at 620 nm and 665 nm after excitation at 350 nm were measured in a TR-FRET reader, e.g. a Rubystar (BMG Labtechnologies, Offenburg, Germany) or a Viewlux (Perkin-Elmer). The ratio of the emissions at 665 nm and at […] was taken as the measure for the amount of phosphorylated substrate. The data were normalised (enzyme reaction without inhibitor=0% inhibition, all other assay components but no enzyme=100% inhibition).
In general terms: TR-FRET usually uses a lanthanide donor and a delayed reading to cut background.
T1 sequence (Q9BUB5 1-424 isoform Q9BUB5-2 T344D): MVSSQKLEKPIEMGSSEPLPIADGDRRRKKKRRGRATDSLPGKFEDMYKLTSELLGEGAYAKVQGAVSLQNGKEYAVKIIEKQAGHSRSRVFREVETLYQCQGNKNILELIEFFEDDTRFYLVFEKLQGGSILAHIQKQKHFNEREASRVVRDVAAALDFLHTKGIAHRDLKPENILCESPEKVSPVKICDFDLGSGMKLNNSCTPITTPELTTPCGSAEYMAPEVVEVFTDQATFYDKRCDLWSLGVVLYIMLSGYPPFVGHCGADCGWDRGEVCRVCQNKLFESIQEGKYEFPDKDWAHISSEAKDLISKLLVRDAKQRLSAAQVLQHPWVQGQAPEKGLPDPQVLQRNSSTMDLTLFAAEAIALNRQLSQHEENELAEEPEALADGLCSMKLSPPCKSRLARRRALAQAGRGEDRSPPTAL
In the case of `CC(C)NC(=O)C1CCc2c(sc3ncnc(Nc4cnc5[nH]ncc5c4)c23)C1` (racemic) [Example 23, (RS)—N-(Propan-2-yl)-4-(1H-pyrazolo[3,4-b]pyridin-5-ylamino)-5,6,7,8-tetrahydro[1]benzothieno[2,3-d]pyrimidine-7-carboxamide], the concentration for half-maximal inhibition (IC50) (usually the concentration that gives 50% inhibition) was determined as 10.4 nM.

For the compound `CC(C)NC(=O)C1CCc2c(sc3ncnc(Nc4cc5cn[nH]c5cn4)c23)C1` (racemic) [Example 24, (RS)—N-(Propan-2-yl)-4-(1H-pyrazolo[3,4-c]pyridin-5-ylamino)-5,6,7,8-tetrahydro[1]benzothieno[2,3-d]pyrimidine-7-carboxamide], the half-maximal inhibitory concentration (IC50) turned out to be 10.7 nM.

Turning to `CN1CCN(C(=O)C2CCc3c(sc4ncnc(Nc5cnc6[nH]ncc6c5)c34)C2)CC1` (racemic) [Example 25, (RS)-(4-Methylpiperazin-1-yl)[4-(1H-pyrazolo[3,4-b]pyridin-5-ylamino)-5,6,7,8-tetrahydro[1]benzothieno[2,3-d]pyrimidin-7-yl]methanone], half-maximal inhibition (IC50) was put at 13.8 nM.

On to `CN1CCN(C(=O)C2CCc3c(sc4ncnc(Nc5cc6cn[nH]c6cn5)c34)C2)CC1` (racemic) [Example 26, (RS)-(4-Methylpiperazin-1-yl)[4-(1H-pyrazolo[3,4-c]pyridin-5-ylamino)-5,6,7,8-tetrahydro[1]benzothieno[2,3-d]pyrimidin-7-yl]methanone], for which the IC50 is 38.2 nM.

Compound `CN(C)C(=O)C1CCc2c(sc3ncnc(Nc4cnc5[nH]ncc5c4)c23)C1` (racemic) [Example 27, (RS)—N,N-Dimethyl-4-(1H-pyrazolo[3,4-b]pyridin-5-ylamino)-5,6,7,8-tetrahydro[1]benzothieno[2,3-d]pyrimidine-7-carboxamide] displayed an IC50 of 20.3 nM. This IC50 lies about 1.9-fold lower than the previous one.

`CN(C)C(=O)C1CCc2c(sc3ncnc(Nc4cc5cn[nH]c5cn4)c23)C1` (racemic) [Example 28, (RS)—N,N-Dimethyl-4-(1H-pyrazolo[3,4-c]pyridin-5-ylamino)-5,6,7,8-tetrahydro[1]benzothieno[2,3-d]pyrimidine-7-carboxamide] yielded a half-maximal inhibitory concentration (IC50) of 9.8 nM.

In turn, `CC(C)NC(=O)C1CCc2[nH]c3ncnc(Nc4cnc5[nH]ncc5c4)c3c2C1` (racemic) [Example 29, (RS)—N-(Propan-2-yl)-4-(1H-pyrazolo[3,4-b]pyridin-5-ylamino)-6,7,8,9-tetrahydro-5H-pyrimido[4,5-b]indole-6-carboxamide] displayed a half-inhibitory concentration (IC50) of 24.7 nM.

Compound `CN(C)C(=O)C1CCc2[nH]c3ncnc(Nc4cnc5[nH]ncc5c4)c3c2C1` (racemic) [Example 30, (RS)—N,N-Dimethyl-4-(1H-pyrazolo[3,4-b]pyridin-5-ylamino)-6,7,8,9-tetrahydro-5H-pyrimido[4,5-b]indole-6-carboxamide] registered an IC50 of 50.7 nM. Compared with the last compound, the IC50 is about 2.1-fold higher.

In turn, `CN(C)C(=O)C1CCc2[nH]c3ncnc(Nc4cc5cn[nH]c5cn4)c3c2C1` (racemic) [Example 31, (RS)—N,N-Dimethyl-4-(1H-pyrazolo[3,4-c]pyridin-5-ylamino)-6,7,8,9-tetrahydro-5H-pyrimido[4,5-b]indole-6-carboxamide] returned a concentration for half-maximal inhibition (IC50) of 59.1 nM.

The compound `CN1CCN(C(=O)C2CCc3[nH]c4ncnc(Nc5cnc6[nH]ncc6c5)c4c3C2)CC1` (racemic) [Example 32, (RS)-(4-Methylpiperazin-1-yl)[4-(1H-pyrazolo[3,4-b]pyridin-5-ylamino)-6,7,8,9-tetrahydro-5H-pyrimido[4,5-b]indol-6-yl]methanone] registered a half-inhibitory concentration (IC50) of 49 nM.

For the compound `CN1CCN(C(=O)C2CCc3[nH]c4ncnc(Nc5cc6cn[nH]c6cn5)c4c3C2)CC1` (racemic) [Example 33, (RS)-(4-Methylpiperazin-1-yl)[4-(1H-pyrazolo[3,4-c]pyridin-5-ylamino)-6,7,8,9-tetrahydro-5H-pyrimido[4,5-b]indol-6-yl]methanone], half-maximal inhibition (IC50) required 90.4 nM.

Turning to `c1nc(Nc2cnc3[nH]ncc3c2)c2cc[nH]c2n1` [Example 1, N-(7H-Pyrrolo[2,3-d]pyrimidin-4-yl)-1H-pyrazolo[3,4-b]pyridin-5-amine], the concentration for half-maximal inhibition (IC50) was determined as 28.1 nM.

`c1nc(Nc2cc3cn[nH]c3cn2)c2cc[nH]c2n1` [Example 2, N-(7H-Pyrrolo[2,3-d]pyrimidin-4-yl)-1H-pyrazolo[3,4-c]pyridin-5-amine] had an IC50 of 23.8 nM.

Take `Cc1c[nH]c2ncnc(Nc3cnc4[nH]ncc4c3)c12` [Example 3, N-(5-Methyl-7H-pyrrolo[2,3-d]pyrimidin-4-yl)-1H-pyrazolo[3,4-b]pyridin-5-amine]: the IC50 was found to be 25.9 nM.

`Cc1c[nH]c2ncnc(Nc3cc4cn[nH]c4cn3)c12` [Example 4, N-(5-Methyl-7H-pyrrolo[2,3-d]pyrimidin-4-yl)-1H-pyrazolo[3,4-c]pyridin-5-amine] gave an IC50 of 4.2 nM.

`CCc1c[nH]c2ncnc(Nc3cnc4[nH]ncc4c3)c12` [Example 5, N-(5-Ethyl-7H-pyrrolo[2,3-d]pyrimidin-4-yl)-1H-pyrazolo[3,4-b]pyridin-5-amine]: the 50% inhibitory concentration (IC50) is 12.2 nM.

`CCc1c[nH]c2ncnc(Nc3cc4cn[nH]c4cn3)c12` [Example 6, N-(5-Ethyl-7H-pyrrolo[2,3-d]pyrimidin-4-yl)-1H-pyrazolo[3,4-c]pyridin-5-amine] had a half-inhibitory concentration (IC50) of 7.3 nM.

In the case of `CCc1[nH]c2ncnc(Nc3cnc4[nH]ncc4c3)c2c1C` [Example 7, N-(6-Ethyl-5-methyl-7H-pyrrolo[2,3-d]pyrimidin-4-yl)-1H-pyrazolo[3,4-b]pyridin-5-amine], half-maximal inhibition (IC50) required 28.9 nM.

In turn, `CCc1[nH]c2ncnc(Nc3cc4cn[nH]c4cn3)c2c1C` [Example 8, N-(6-Ethyl-5-methyl-7H-pyrrolo[2,3-d]pyrimidin-4-yl)-1H-pyrazolo[3,4-c]pyridin-5-amine] registered an IC50 of 11.5 nM.

`CCOC(=O)c1cc2c(Nc3cnc4[nH]ncc4c3)ncnc2[nH]1` [Example 9, Ethyl 4-(1H-pyrazolo[3,4-b]pyridin-5-ylamino)-7H-pyrrolo[2,3-d]pyrimidine-6-carboxylate] had an IC50 of 3 nM.

Take `CCOC(=O)c1cc2c(Nc3cc4cn[nH]c4cn3)ncnc2[nH]1` [Example 10, Ethyl 4-(1H-pyrazolo[3,4-c]pyridin-5-ylamino)-7H-pyrrolo[2,3-d]pyrimidine-6-carboxylate]: the IC50 amounted to 6.6 nM.

The compound `O=C(O)c1cc2c(Nc3cc4cn[nH]c4cn3)ncnc2[nH]1` [Example 11, 4-(1H-Pyrazolo[3,4-c]pyridin-5-ylamino)-7H-pyrrolo[2,3-d]pyrimidine-6-carboxylic acid] returned an IC50 of 24.1 nM.

The compound `CCOC(=O)c1[nH]c2ncnc(Nc3cnc4[nH]ncc4c3)c2c1Br` [Example 12, Ethyl 5-bromo-4-(1H-pyrazolo[3,4-b]pyridin-5-ylamino)-7H-pyrrolo[2,3-d]pyrimidine-6-carboxylate] showed an IC50 of 5 nM.

With `O=C(O)c1[nH]c2ncnc(Nc3cc4cn[nH]c4cn3)c2c1Br` [Example 14, 5-Bromo-4-(1H-pyrazolo[3,4-c]pyridin-5-ylamino)-7H-pyrrolo[2,3-d]pyrimidine-6-carboxylic acid], the IC50 was 2.8 nM.

Compound `FC(F)(F)c1c[nH]c2ncnc(Nc3cnc4[nH]ncc4c3)c12` [Example 15, N-[5-(Trifluoromethyl)-7H-pyrrolo[2,3-d]pyrimidin-4-yl]-1H-pyrazolo[3,4-b]pyridin-5-amine] gave an IC50 of 28.8 nM.

In the case of `FC(F)(F)c1c[nH]c2ncnc(Nc3cc4cn[nH]c4cn3)c12` [Example 16, N-[5-(Trifluoromethyl)-7H-pyrrolo[2,3-d]pyrimidin-4-yl]-1H-pyrazolo[3,4-c]pyridin-5-amine], the half-inhibitory concentration (IC50) is 52.9 nM.

As to `OCc1c[nH]c2ncnc(Nc3cnc4[nH]ncc4c3)c12` [Example 17, [4-(1H-Pyrazolo[3,4-b]pyridin-5-ylamino)-7H-pyrrolo[2,3-d]pyrimidin-5-yl]methanol], the midpoint of inhibition, the IC50, lay at 32.2 nM.

As for `CN(C)C(=O)c1cc2c(Nc3cc4cn[nH]c4cn3)ncnc2[nH]1` [Example 18, N,N-Dimethyl-4-(1H-pyrazolo[3,4-c]pyridin-5-ylamino)-7H-pyrrolo[2,3-d]pyrimidine-6-carboxamide], it took 11.1 nM to reach half-maximal inhibition (IC50). Against the preceding compound, the IC50 is about 2.9-fold lower.

These data come from patent publication US20160159789A1, “SUBSTITUTED PYRAZOLOPYRIDINES” (BAYER PHARMA AKTIENGESELLSCHAFT, priority 2013, published 2016).
